pIC50: −log10 of the molar value. Positions of bridges follow the written chain, without caps; N, C: chain ends. Non-standard residues stand in square brackets, D forms with d. Residues, ends and D or L forms follow the SMILES beside them. βAla = NCCC(=O)O
Assays:
[1] = 24 h post intravenous injection; cited from earlier work
H125 spheroids = test: 3D growth inhibition assay, multicellular tumor spheroids; format: cell-based, human; conditions: IC25 and IC50 doses of monolayers, after 5 days of treatment, medium replaced every 48 h
[2] = tested on: A549 and A549-cispR cells; test: Apoptosis, acridine orange/ethidium bromide double staining; format: cell-based, human; conditions: 300 μM CIGB-300, 18 h
Procedure: To assess the effect of CIGB-300 or cisplatin on cell viability, 1 × 10^4 cells/well were seeded into 96 well plates in standard culture conditions. Twenty-four hours later cells were treated with different doses of CIGB-300 (25–400 μM) or cisplatin (0.3–30 μM) during 72 h. Cell proliferation was evaluated after 72 h using the MTS assay (Celltiter 96TM Non Radioactive Proliferation Assay, Promega), as described by the manufacturer. Data were analyzed using the R package “ic50” [33] in order to determine the IC50 values for each drug. Alternatively, proliferative potential was determined by assessing cell number. Briefly, cells were seeded onto 35 mm Petri dishes, treated and after 72 h wells were washed twice with PBS, trypsinized, centrifuged, resuspended in a proper volume and finally counted using an hemocytometer and trypan blue exclusion. For apoptosis determination, A549 and A549-cispR cells growing on glass coverslips were treated with 300 μM of CIGB-300 for 18 h and then stained with Acridine orange (10 μg/ml) and Ethidium bromide (10 μg/ml). Visualization was performed with a Nikon, Eclipse E400 epifluorescence microscope. Uniform green nuclei with organized structure were considered as live cells. Bright green or orange to red nuclei were classified as early or late apoptotic cells respectively. […] The percentage of dead cells was determined for each cell line.

proteasome in H125 cells = test: Proteasome-Glo Chymotrypsin-Like Cell-Based Assay; set-up: species or system human; conditions: H125, CIGB-300 30 min, luminescence
Procedure: Proteasome activity was assessed in H125 cells using the Proteasome-Glo Chymotrypsin-Like Cell-Based Assay (Promega) following manufacturer’s instructions. Briefly, H125 cells were plated onto 96-well plates and 24 h later treated with CIGB-300 (30 min) or with Bortezomib (4 h). Briefly: 100 µl of Proteasome-Glo™ Cell-Based Reagent were added to each 100 µl of sample and incubated at RT for 10 min. Luminescence emission was measured with a Multimode Microplate Reader, Synergy luminometer (Biotek).

[3] = up to 40 mg/kg/day intravenously; cited from earlier work
[4] = tested on: NF-κB p65/relA in H125 cells; test: Western blot of nuclear p65/RelA; format: cell-based, human; conditions: H125, low-lethal dose (IC25), Western blot of nuclear extracts, with or without PMA
Procedure: (§1) For Wnt/β-CATENIN pathway studies, H125 sub-confluent monolayers were first incubated during 24 h with 50% of CM containing the wnt3a factor and then treated for another 6 h with a low-lethal dose of CIGB-300 (IC25) or during 2 h with the CK2 competitive inhibitor TBB (25 μM) as a control. […] For the analysis of NF-κB downstream targets, H125, A549 or A549-Rcisp cells were incubated for 2 h with CIGB-300 (IC50). In the case of Bortezomib, cells were previously pretreated with 8 nM of this drug during 4 h.
(§2) In order to determine β-CATENIN expression levels, cytoplasmic proteins were extracted using saponin buffer. Briefly, monolayer cultures were incubated for 20 min with ice-cold 0.1% saponin lysis buffer (25 mM Hepes, 75 mM potassium acetate and 0.1% saponin plus phosphatase and protease inhibitors). The extraction procedure was carried out twice and the extracts were pooled prior to their centrifugation. For NF-κB detection, nuclear and cytoplasmic proteins were separated by differential centrifugation following Abcam protocol. Briefly, semiconfluent monolayers were washed twice with ice-cold PBS and then collected in 250 μl of Fractionation Buffer (HEPES 20 mM, KCl 10 mM, MgCl2 2 mM, EDTA 1 mM and 2-Mercaptoethanol […]) with protease and phosphatase inhibitors by scrapping with a Teflon scrapper. […]

[5] = tested on: NF-κB-RE-luc in H125 cells; test: NF-κB-dependent reporter gene expression; format: cell-based, human; conditions: H125, PMA 16 nM 6 h, CIGB-300 IC25 during first hour, dual luciferase
Procedure: H125 cells were transiently co-transfected with NF-κB-RE-luc Luciferase Reporter Vector pGL4.32 and the Renilla Luciferase Control Reporter Vector pRL-TK (Promega, Madison, WI) in a 10:1 ratio, using Fugene (Promega) following manufacturer’s instructions. Briefly, 1 × 10^5 cells/well were seeded onto 24-well plates and transfected the next day. Six hours after adding transfection reagents, cells were washed and complete media was added. After an overnight recovery, cells were treated for 6 h with PMA (16 nM), in presence or not of CIGB-300 (IC25) during the first hour. Finally cells were lysed and the luciferase activities were determined using the Dual-Luciferase Reporter Assay System (Promega) and normalized to the constitutive Renilla luciferase activity.

β-CATENIN in H125 cells = test: Western blot of cytoplasmic β-CATENIN; format: cell-based, human
Procedure: as §1, §2

H125 cells = test: Cell viability, MTS assay, monolayer; format: cell-based, human
Procedure: (§3) We used two human non-small cell lung cancer (NSCLC) derived cell lines: the adenosquamous cell carcinoma NCI-H125 (CRL-5801) and the adenocarcinoma NIH-A549 (CCL-185). The murine L Wnt-3A cell line (CRL-2647) was used in order to produce conditioned media (CM) containing the wnt3a factor, following ATCC’s instructions. All cell lines were obtained from ATCC. H125 was grown in RPMI medium supplemented with 10% FBS and 80 µg/ml gentamycin. A549 and L cells were grown in DMEM media, with the above mentioned supplementation. All cell lines were cultured at 37 °C in a humidified air atmosphere with 5% CO2.
(§4) To assess the effect of CIGB-300 or cisplatin on cell viability, 1 × 10^4 cells/well were seeded into 96 well plates in standard culture conditions. Twenty-four hours later cells were treated with different doses of CIGB-300 (25–400 μM) or cisplatin (0.3–30 μM) during 72 h. Cell proliferation was evaluated after 72 h using the MTS assay (Celltiter 96TM Non Radioactive Proliferation Assay, Promega), as described by the manufacturer. Data were analyzed using the R package “ic50” [33] in order to determine the IC50 values for each drug. Alternatively, proliferative potential was determined by assessing cell number. Briefly, cells were seeded onto 35 mm Petri dishes, treated and after 72 h wells were washed twice with PBS, trypsinized, centrifuged, resuspended in a proper volume and finally counted using an hemocytometer and trypan blue exclusion. For apoptosis determination, A549 and A549-cispR cells growing on glass coverslips were treated with 300 μM of CIGB-300 for 18 h and then stained with Acridine orange (10 μg/ml) and Ethidium bromide (10 μg/ml). Visualization was performed with a Nikon, Eclipse E400 epifluorescence microscope. Uniform green nuclei with organized structure were considered as live cells. Bright green or orange to red nuclei were classified as early or late apoptotic cells respectively. Uniformly orange to red nuclei with organized structure were ascribed as necrotic cells. The percentage of dead cells was determined for each cell line.

A549 cells = test: Cell viability, MTS assay, monolayer; format: cell-based, human; conditions: dose selected from the viability results
Procedure: as §3, §4

[6] = target: T1, α7/C8 (PSMA3) in H125 cells (Homo sapiens, UniProt P25788); test: Confocal immunofluorescence, co-occurrence with α7/C8; format: cell-based; conditions: H125, biotin-conjugated CIGB-300 30 min, cells with cytoplasmic signal, Manders coefficient
T1 construct: endogenous in cells; host or cells: H125 (NCI-H125) human NSCLC cells
Procedure: H125 cells growing on glass coverslips were treated with biotin-conjugated CIGB-300 for 30 min, washed twice with PBS, fixed in ice cold paraformaldehyde, permeabilized and blocked with PBS containing 5% bovine serum albumin for 1 h at RT. α7/C8 protein was detected by incubation with a specific primary antibody diluted in PBS containing 5% BSA, followed by an incubation with a secondary antibody coupled to Alexa 647 and with Streptavidin-FITC conjugated for 1 h at RT. Nuclei were stained with DAPI. Images were obtained in a LSM 510 Meta confocal Zeiss microscope. Confocal images were processed for presentation with ImageJ. Background of each channel was subtracted. Pearson’s and Mander’s coefficients were calculated using the JACoP plugin [38]. Single cell analysis for 15–20 representative cells was performed on three independent experiments.

[7] = tested on: A549 and A549-cispR cells; test: Viability by cell number after cisplatin; format: cell-based, human; conditions: cell number 72 h after cisplatin, untreated set as 100%
Excerpt: Parental A549 cells were maintained in culture during the same period.

Structure (SMILES) | peptide uptake at tumor site [1] | volume of treated spheroids compared with untreated controls (H125 spheroids) | number of dead cells on A549-cispR vs A549 [2] | proteasomal activity (proteasome in H125 cells) | tolerability of high doses [3] | nuclear levels of p65/relA [4] | NF-κB transcriptional response [5] | β-CATENIN cytoplasmic accumulation with active Wnt pathway (β-CATENIN in H125 cells; H125, 24 h 50% CM with wnt3a, then CIGB-300 IC25 6 h or TBB 25 μM 2 h) | basal levels of cytoplasmic β-CATENIN (β-CATENIN in H125 cells; H125, low-lethal dose CIGB-300 6 h, no wnt3a) | IC25 (low-lethal dose) (H125 cells; dose selected from the viability results) [µM] | IC25 (low-lethal dose) (A549 cells) [µM] | α7/C8 coincident with CIGB-300 presence [6] | pIC50 (H125 cells; MTS assay, 72 h treatment, R package ic50, three independent experiments) | viability of A549-cispR relative to parental A549 after cisplatin treatment [7]
CSCC[C@@H]1NC(=O)[C@H](Cc2c[nH]c3ccccc23)NC(=O)[C@@H](NC(=O)CCNC(=O)[C@H](CCC(N)=O)NC(=O)[C@@H]2CCCN2C(=O)[C@@H]2CCCN2C(=O)[C@H](CCCNC(=N)N)NC(=O)[C@H](CCCNC(=N)N)NC(=O)[C@H](CCCNC(=N)N)NC(=O)[C@H](CCC(N)=O)NC(=O)[C@H](CCCNC(=N)N)NC(=O)[C@H](CCCNC(=N)N)NC(=O)[C@H](CCCCN)NC(=O)[C@H](CCCCN)NC(=O)[C@H](CCCNC(=N)N)NC(=O)CN)CSSC[C@@H](C(=O)O)NC(=O)[C@H]([C@@H](C)O)NC(=O)CNC(=O)[C@H](CC(C)C)NC(=O)[C@H](Cc2c[nH]cn2)NC(=O)[C@H](CCCNC(=N)N)NC(=O)[C@@H]2CCCN2C(=O)[C@H](CO)NC1=O [CIGB-300] (H-GRKKRRQRRRPPQ[βAla]CWMSPRHLGTC-OH; disulfide 15-25; N-terminus and C-terminus assumed) | up to 1.5% | significantly lower | significantly increased | increased proteasomal activity | safe, well tolerated and non-toxic | reduced the nuclear levels | decreased NF-κB transcriptional response | partially reverted | not reduced | 60 | 150 | More than 80% | – | –
N.N.[Cl][Pt][Cl] [cisplatin, cisdiammine-dichloro-platinum, reference compound] | – | – | – | – | – | – | – | – | – | – | – | – | 6.00 | twofold higher

Reference: paper PMC5374619, “The synthetic peptide CIGB-300 modulates CK2-dependent signaling pathways affecting the survival and chemoresistance of non-small cell lung cancer cell lines” (Cancer Cell International, 2017)
